Patent publication US20050197350A1, “Novel quinoline, tetrahydroquinazoline, and pyrimidine derivatives and methods of treatment related to the use thereof” (TAISHO PHARMACEUTICAL CO., LTD., priority 2003, published 2005)
Counter-ions that a name gives are not always drawn. Like-named read-outs stand apart in the source and are kept apart here.

Biological target: MCH receptor (Homo sapiens, UniProt Q99705)
Experiment: High throughput functional screening FLIPR/FDSS6000 (intracellular Ca2+ evoked by MCH)
Assay type: cell-based
Settings: FLIPR/FDSS, antagonist activity vs 50 nM MCH, class by percent of control at 10^−7 M or IC50, read-out: class
In short: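 For antagonist testing, compound-treated cells (30 min, 37 °C) were stimulated with 50 nM MCH and intracellular Ca2+ followed by Fluo4 fluorescence on FLIPR/FDSS6000. Receptor was a constitutively active, non-endogenous MCH receptor; dye loading 4 μM Fluo4-AM, 1 h, 37 °C.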

SMILES | IC50 (table after the classification) | IC50
O=C(N[C@H]1CC[C@@H](Nc2ccc3ccccc3n2)CC1)c1cc(C(F)(F)F)cc(C(F)(F)F)c1 [Example 3148, N-[cis-4-(Quinolin-2-ylamino)-cyclohexyl]-3,5-bis-trifluoromethyl-benzamide hydrochloride] | > 200 nM | 
CN(C)c1nc(N[C@H]2CC[C@@H](NC(=O)c3cccnc3Oc3ccccc3)CC2)nc2c1CCCC2 [Example 3107, N-[cis-4-(4-Dimethylamino-5,6,7,8-tetrahydro-quinazolin-2-ylamino)-cyclohexyl]-2-phenoxy-nicotinamide hydrochloride] | < 50 nM | 
CNc1cc(N[C@H]2CC[C@@H](NCc3ccc(Br)cc3OC(F)(F)F)CC2)nc2ccccc12 [Example 1, N^2-[cis-4-(4-Bromo-2-triflouromethoxy-benzyl)-amino-cyclohexyl]-N^4-methyl-quinoline-2,4-diamine dihydrochloride] | 50 to 200 nM | 
Cc1cc(N(C)C)nc(N[C@H]2CC[C@@H](NC(=O)c3cccnc3S(=O)(=O)c3ccccc3Cl)CC2)n1 [Example 3369, 2-[(2-chlorophenyl)sulfonyl]-N-(cis-4-{[4-(dimethylamino)-6-methylpyrimidin-2-yl]amino}cyclohexyl)nicotinamide] |  | 50 to 200 nM
COc1cc(OC)cc(C(=O)N[C@H]2CC[C@@H](Nc3ccc4ccccc4n3)CC2)c1 [Example 3039, 3,5-Dimethoxy-N-[cis-4-(quinolin-2-ylamino)-cyclohexyl]-benzamide hydrochloride] | < 50 nM | 
Cc1cnc(N[C@H]2CC[C@@H](NC(=O)COc3cc(C(F)(F)F)nn3C)CC2)nc1N(C)C [Example 3356, N-(cis-4-{[4-(dimethylamino)-5-methylpyrimidin-2-yl]amino}cyclohexyl)-2-{[1-methyl-3-(trifluoromethyl)-1H-pyrazol-5-yl]oxy}acetamide] |  | < 50 nM
CN(C)c1ccnc(N[C@H]2CC[C@@H](NC(=O)c3ccc(F)c(Cl)c3)CC2)n1 [Example 3206, 3-Chloro-N-[cis-4-(4-dimethylamino-pyrimidin-2-ylamino)-cyclohexyl]-4-fluoro-benzamide hydrochloride] | < 50 nM | 
Cc1cc(N[C@H]2CC[C@@H](NC(=O)Nc3cccc(Cl)c3Cl)CC2)nc2ccccc12 [Example 3072, 1-(2,3-Dichloro-phenyl)-3-[cis-4-(4-methyl-quinolin-2-ylamino)-cyclohexyl]-urea hydrochloride] | < 50 nM | 
COc1ccc(S(=O)(=O)c2ncccc2C(=O)N[C@H]2CC[C@@H](Nc3ncc(C)c(N(C)C)n3)CC2)cc1 [Example 3286, N-(cis-4-{[4-(dimethylamino)-5-methylpyrimidin-2-yl]amino}cyclohexyl)-2-[(4-methoxyphenyl)sulfonyl]-nicotinamide] |  | > 200 nM
Cc1cc(N[C@H]2CC[C@@H](NC(=O)c3cccnc3)CC2)nc2ccccc12 [Example 3182, N-[cis-4-(4-Methyl-quinolin-2-ylamino)-cyclohexyl]-nicotinamide hydrochloride] | > 200 nM | 
Nc1cc(N[C@H]2CC[C@@H](NC(=O)c3ccc(F)c(F)c3)CC2)nc2ccccc12 [Example 3235, N-[cis-4-(4-Amino-quinolin-2-ylamino)-cyclohexyl]-3,4-difluoro-benzamide hydrochloride] | < 50 nM | 
CN(C)c1ccnc(N[C@H]2CC[C@@H](NC(=O)c3ccc(C(F)(F)F)nc3)CC2)n1 [Example 3212, N-[cis-4-(4-Dimethylamino-pyrimidin-2-ylamino)-cyclohexyl]-6-trifluoromethyl-nicotinamide hydrochloride] | > 200 nM | 
Cc1cc(N[C@H]2CC[C@@H](NC(=O)c3cccnc3Oc3ccccc3)CC2)nc2ccccc12 [Example 3070, N-[cis-4-(4-Methylquinolin-2-ylamino)-cyclohexyl]-2-phenoxy-nicotinamide hydrochloride] | < 50 nM | 
O=C(N[C@H]1CC[C@@H](Nc2ccc3ccccc3n2)CC1)c1cccc([N+](=O)[O-])c1 [Example 3045, 3-Nitro-N-[cis-4-(quinolin-2-ylamino)-cyclohexyl]-benzamide hydrochloride] | < 50 nM | 
Cc1cnc(N[C@H]2CC[C@@H](NC(=O)Nc3ccc(F)c(F)c3)CC2)nc1N(C)C [Example 3327, N-(3,4-difluorophenyl)-N′-(cis-4-{[4-(dimethylamino)-5-methylpyrimidin-2-yl]amino}cyclohexyl)urea] |  | 50 to 200 nM
CN(C)c1ccnc(N[C@H]2CC[C@@H](NC(=O)Cc3ccc(F)c(F)c3)CC2)n1 [Example 3204, 2-(3,4-Difluoro-phenyl)-N-[cis-4-(4-dimethylamino-pyrimidin-2-ylamino)-cyclohexyl]-acetamide hydrochloride] | 50 to 200 nM | 
Cc1cc(N(C)C)nc(N[C@H]2CC[C@@H](NC(=O)c3cccnc3S(=O)(=O)c3cccc(Br)c3)CC2)n1 [Example 3373, 2-[(3-bromophenyl)sulfonyl]-N-(cis-4-{[4-(dimethylamino)-6-methylpyrimidin-2-yl]amino}cyclohexyl)nicotinamide] |  | 50 to 200 nM
CN(C)c1ccnc(N[C@H]2CC[C@@H](NC(=O)c3cncc(Br)c3)CC2)n1 [Example 3211, 5-Bromo-N-[cis-4-(4-dimethylamino-pyrimidin-2-ylamino)-cyclohexyl]-nicotinamide hydrochloride] | < 50 nM | 
CN(C)c1nc(N[C@H]2CC[C@@H](NC(=O)c3cc([N+](=O)[O-])cn3C)CC2)nc2c1CCCC2 [Example 3194, 1-Methyl-4-nitro-1H-pyrrole-2-carboxylic acid [cis-4-(4-dimethylamino-5,6,7,8-tetrahydro-quinazolin-2-ylamino)-cyclohexyl]-amide hydrochloride] | < 50 nM | 
Cc1cnc(N[C@H]2CC[C@@H](NC(=O)[C@@H]3C[C@H]3c3cc(C(F)(F)F)cc(C(F)(F)F)c3)CC2)nc1N(C)C (relative stereo) [Example 3320, trans-2-[3,5-bis(trifluoromethyl)phenyl]-N-(cis-4-{[4-(dimethylamino)-5-methylpyrimidin-2-yl]amino}cyclohexyl)-cyclopropanecarboxamide] |  | < 50 nM
Cc1cc(N[C@H]2CC[C@@H](C(=O)N[C@H](C)c3cccc(C(F)(F)F)c3)CC2)nc2ccccc12 [Example 3307, cis-4-[(4-methylquinolin-2-yl)amino]-N-{(1R)-1-[3-(trifluoromethyl)phenyl]ethyl}cyclohexanecarboxamide] |  | < 50 nM
CN(C)c1ccnc(N[C@H]2CC[C@@H](NC(=O)c3cccnc3)CC2)n1 [Example 3209, N-[cis-4-(4-Dimethylamino-pyrimidin-2-ylamino)-cyclohexyl]-nicotinamide dihydrochloride] | > 200 nM | 
CN(C)c1ccnc(N[C@H]2CC[C@@H](NC(=O)c3ccc(Cl)c(F)c3)CC2)n1 [Example 3207, 4-Chloro-N-[cis-4-(4-dimethylamino-pyrimidin-2-ylamino)-cyclohexyl]-3-fluoro-benzamide hydrochloride] | < 50 nM | 
CN(C)c1nc(N[C@H]2CC[C@@H](NCCc3ccc(Br)cc3OC(F)(F)F)CC2)nc2c1CCCC2 [Example 14, N^2-{cis-4-[2-(4-Bromo-2-trifluoromethoxy-phenyl)-ethylamino]-cyclohexyl}-N^4,N^4-dimethyl-5,6,7,8-tetrahydro-quinazoline-2,4-diamine dihydrochloride] | < 50 nM | 
